Reference: patent US6436921B1, “Carbapenem derivatives and a preparation method thereof” (Korea Institute of Science and Technology, priority 1997, dated 2002)
Values after ≈ are worked out from the molar mass of the structure shown. Where two headings read alike, the source gives them in different places.

Key:
[1] = molecular target: DHP-I (renal dehydropeptidase-I) (Homo sapiens, UniProt P16444); assay: in vitro
[2] = test system: Escherichia coli 1507E; assay: Antibacterial activity test (agar dilution MIC); assay type: cell-based; settings: for MIC: read-out: Minimum inhibitory concentration
Method: (§1) Gram-positive Streptococcus and Staphylococcus and Gram-negative Escherichia coli, Pseudomonas, Salmonella, Klebsiella and Enterobacter were selected for the test. After the cells were diluted and cultured in agar, the compounds of the present invention were treated to obtain the minimum inhibitory concentration in the units of μg/ml.

[3] = test system: Pseudomonas aeruginosa 1592E; assay: Antibacterial activity test (agar dilution MIC); assay type: cell-based; settings: for MIC: read-out: Minimum inhibitory concentration
Method: as §1

[4] = test system: Staphylococcus aureus 285; assay: Antibacterial activity test (agar dilution MIC); assay type: cell-based; settings: Staphylococcus aureus 285, agar; for MIC: read-out: Minimum inhibitory concentration
Method: as §1

[5] = test system: Streptococcus faecium MD8b; assay: Antibacterial activity test (agar dilution MIC); assay type: cell-based; settings: for MIC: Enterococcus faecium, read-out: Minimum inhibitory concentration
Method: as §1

[6] = test system: Escherichia coli DC0; assay: Antibacterial activity test (agar dilution MIC); assay type: cell-based; settings: for MIC: read-out: Minimum inhibitory concentration
Method: as §1

[7] = test system: Salmonella typhimurium; assay: Antibacterial activity test (agar dilution MIC); assay type: cell-based; settings: for MIC: Salmonella enterica, read-out: Minimum inhibitory concentration
Method: as §1

[8] = test system: Pseudomonas aeruginosa 1771; assay: Antibacterial activity test (agar dilution MIC); assay type: cell-based; settings: Pseudomonas aeruginosa 1771, agar; for MIC: read-out: Minimum inhibitory concentration
Method: as §1

[9] = test system: Staphylococcus aureus SG511; assay: Antibacterial activity test (agar dilution MIC); assay type: cell-based; settings: for MIC: read-out: Minimum inhibitory concentration
Method: as §1

[10] = test system: Staphylococcus aureus 503; assay: Antibacterial activity test (agar dilution MIC); assay type: cell-based; settings: Staphylococcus aureus 503, agar; for MIC: read-out: Minimum inhibitory concentration
Method: as §1

[11] = test system: Klebsiella oxytoca 1082E; assay: Antibacterial activity test (agar dilution MIC); assay type: cell-based; settings: for MIC: read-out: Minimum inhibitory concentration
Method: as §1

[12] = test system: Pseudomonas aeruginosa 9027; assay: Antibacterial activity test (agar dilution MIC); assay type: cell-based; settings: Pseudomonas aeruginosa 9027, agar; for MIC: read-out: Minimum inhibitory concentration
Method: as §1

[13] = test system: Pseudomonas aeruginosa 1771M; assay: Antibacterial activity test (agar dilution MIC); assay type: cell-based; settings: for MIC: Pseudomonas aeruginosa, 1771M, read-out: Minimum inhibitory concentration
Method: as §1

[14] = test system: Enterobacter cloacae P99; assay: Antibacterial activity test (agar dilution MIC); assay type: cell-based; settings: for MIC: read-out: Minimum inhibitory concentration
Method: as §1

[15] = test system: Escherichia coli DC2; assay: Antibacterial activity test (agar dilution MIC); assay type: cell-based; settings: for MIC: read-out: Minimum inhibitory concentration
Method: as §1

[16] = test system: Escherichia coli 078; assay: Antibacterial activity test (agar dilution MIC); assay type: cell-based; settings: Escherichia coli 078, agar; for MIC: read-out: Minimum inhibitory concentration
Method: as §1

[17] = test system: Escherichia coli TEM; assay: Antibacterial activity test (agar dilution MIC); assay type: cell-based; settings: for MIC: Escherichia coli, read-out: Minimum inhibitory concentration
Method: as §1

[18] = test system: Streptococcus pyogenes 77A; assay: Antibacterial activity test (agar dilution MIC); assay type: cell-based; settings: for MIC: read-out: Minimum inhibitory concentration
Method: as §1

[19] = test system: Enterobacter cloacae 1321E; assay: Antibacterial activity test (agar dilution MIC); assay type: cell-based; settings: for MIC: read-out: Minimum inhibitory concentration
Method: as §1

[20] = test system: Klebsiella aerogenes 1522E; assay: Antibacterial activity test (agar dilution MIC); assay type: cell-based; settings: for MIC: read-out: Minimum inhibitory concentration
Method: as §1

[21] = test system: Streptococcus pyogenes 308A; assay: Antibacterial activity test (agar dilution MIC); assay type: cell-based; settings: for MIC: read-out: Minimum inhibitory concentration
Method: as §1

[22] = molecular target: renal enzyme (DHP-I) (Homo sapiens, UniProt P16444); settings: FIG. 1
[23] = Bioavailability test, subcutaneous injection to mice; assay type: in vivo
[24] = test system: Streptococcus pyrogenes A 77; assay: PD50 test using mice; assay type: in vivo; parameters: PD50: unit not given beside the values
Description: (§2) This means that ⅓ of the amount of the compound 10 has the same effect as meropenem.
(§3) Streptococcus pyrogenes A 77 and Escherichia coli 078 were selected as gram-positive and gram-negative strains, respectively.

[25] = test system: Escherichia coli 078; assay: PD50 test using mice; assay type: in vivo; parameters: PD50: unit not given beside the values
Description: as §2, §3

Sequence of DHP-I (renal dehydropeptidase-I) (P16444 17-385): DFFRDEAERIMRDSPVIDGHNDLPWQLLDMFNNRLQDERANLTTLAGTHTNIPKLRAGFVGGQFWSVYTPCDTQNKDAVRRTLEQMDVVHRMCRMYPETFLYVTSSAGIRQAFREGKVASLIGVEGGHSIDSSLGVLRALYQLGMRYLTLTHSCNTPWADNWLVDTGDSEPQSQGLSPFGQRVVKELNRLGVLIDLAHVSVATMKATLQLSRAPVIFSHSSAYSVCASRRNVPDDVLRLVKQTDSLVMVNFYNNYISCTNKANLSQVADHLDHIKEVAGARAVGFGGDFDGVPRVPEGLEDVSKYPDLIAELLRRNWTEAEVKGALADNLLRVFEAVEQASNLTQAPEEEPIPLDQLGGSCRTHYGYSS
Sequence of renal enzyme (DHP-I) (P16444 17-385): as above

Compound	MIC [2]	MIC [3]	MIC [4]	MIC [5]	MIC [6]	MIC [7]	MIC [8]	MIC [9]	MIC [10]	MIC [11]	MIC [12]	MIC [13]	MIC [14]	MIC [15]	MIC [16]	MIC [17]	MIC [18]	MIC [19]	MIC [20]	MIC [21]	also measured
C[C@@H](O)[C@H]1C(=O)N2C(C(=O)O)=C(SCCN=CN)C[C@H]12 [imipenem, reference compound]	–	–	–	–	–	–	–	–	–	–	–	–	–	–	–	–	–	–	–	–	half-life ([1]; renal enzyme DHP-I): 30 min
CNS(=O)(=O)CCNC(=O)[C@@H]1C[C@H](SC2=C(C(=O)O)N3C(=O)[C@H]([C@@H](C)O)[C@H]3[C@H]2C)CN1 [Compound 11]	0.013 µg/mL (≈ 0.0273 µM)	0.195 µg/mL (≈ 0.409 µM)	0.195 µg/mL (≈ 0.409 µM)	6.25 µg/mL (≈ 13.1 µM)	0.025 µg/mL (≈ 0.0525 µM)	0.025 µg/mL (≈ 0.0525 µM)	0.195 µg/mL (≈ 0.409 µM)	0.098 µg/mL (≈ 0.206 µM)	0.098 µg/mL (≈ 0.206 µM)	0.049 µg/mL (≈ 0.103 µM)	0.391 µg/mL (≈ 0.82 µM)	0.195 µg/mL (≈ 0.409 µM)	0.049 µg/mL (≈ 0.103 µM)	0.025 µg/mL (≈ 0.0525 µM)	0.025 µg/mL (≈ 0.0525 µM)	0.013 µg/mL (≈ 0.0273 µM)	0.004 µg/mL (≈ 0.00839 µM)	0.025 µg/mL (≈ 0.0525 µM)	0.049 µg/mL (≈ 0.103 µM)	0.013 µg/mL (≈ 0.0273 µM)	–
C[C@@H](O)[C@H]1C(=O)N2C(C(=O)O)=C(S[C@@H]3CN[C@H](C(=O)NCCS(=O)(=O)NCCO)C3)[C@H](C)[C@H]12 [Compound 13]	–	–	–	–	–	–	–	–	–	–	–	–	–	–	–	–	–	–	–	–	Minimum inhibitory concentration [2]: 0.025 µg/mL (≈ 0.0493 µM); Minimum inhibitory concentration [3]: 1.563 µg/mL (≈ 3.09 µM); Minimum inhibitory concentration [4]: 0.195 µg/mL (≈ 0.385 µM); Minimum inhibitory concentration [5]: 12.5 µg/mL (≈ 24.7 µM); Minimum inhibitory concentration [6]: 0.025 µg/mL (≈ 0.0493 µM); Minimum inhibitory concentration [7]: 0.025 µg/mL (≈ 0.0493 µM); Minimum inhibitory concentration [8]: 1.563 µg/mL (≈ 3.09 µM); Minimum inhibitory concentration [9]: 0.195 µg/mL (≈ 0.385 µM); Minimum inhibitory concentration [10]: 0.098 µg/mL (≈ 0.193 µM); Minimum inhibitory concentration [11]: 0.049 µg/mL (≈ 0.0967 µM); Minimum inhibitory concentration [12]: 1.563 µg/mL (≈ 3.09 µM); Minimum inhibitory concentration ([13]; Pseudomonas aeruginosa 1771M, agar): 0.391 µg/mL (≈ 0.772 µM); Minimum inhibitory concentration [14]: 0.049 µg/mL (≈ 0.0967 µM); Minimum inhibitory concentration [15]: 0.025 µg/mL (≈ 0.0493 µM); Minimum inhibitory concentration [16]: 0.013 µg/mL (≈ 0.0257 µM); Minimum inhibitory concentration ([17]; Escherichia coli TEM, agar): 0.013 µg/mL (≈ 0.0257 µM); Minimum inhibitory concentration [18]: 0.007 µg/mL (≈ 0.0138 µM); Minimum inhibitory concentration [19]: 0.013 µg/mL (≈ 0.0257 µM); Minimum inhibitory concentration [20]: 0.025 µg/mL (≈ 0.0493 µM); Minimum inhibitory concentration [21]: 0.013 µg/mL (≈ 0.0257 µM)
CNC(=O)CCNC(=O)[C@@H]1C[C@H](SC2=C(C(=O)O)N3C(=O)[C@H]([C@@H](C)O)[C@H]3[C@H]2C)CN1 [Compound 2]	0.025 µg/mL (≈ 0.0568 µM)	0.781 µg/mL (≈ 1.77 µM)	0.781 µg/mL (≈ 1.77 µM)	12.5 µg/mL (≈ 28.4 µM)	0.049 µg/mL (≈ 0.111 µM)	0.049 µg/mL (≈ 0.111 µM)	0.781 µg/mL (≈ 1.77 µM)	0.391 µg/mL (≈ 0.888 µM)	0.195 µg/mL (≈ 0.443 µM)	0.098 µg/mL (≈ 0.222 µM)	0.781 µg/mL (≈ 1.77 µM)	0.391 µg/mL (≈ 0.888 µM)	0.049 µg/mL (≈ 0.111 µM)	0.098 µg/mL (≈ 0.222 µM)	0.049 µg/mL (≈ 0.111 µM)	0.025 µg/mL (≈ 0.0568 µM)	0.013 µg/mL (≈ 0.0295 µM)	0.025 µg/mL (≈ 0.0568 µM)	0.049 µg/mL (≈ 0.111 µM)	0.013 µg/mL (≈ 0.0295 µM)	–
C[C@@H](O)[C@H]1C(=O)N2C(C(=O)O)=C(S[C@@H]3CN[C@H](C(=O)NCCS(N)(=O)=O)C3)[C@H](C)[C@H]12 [Compound 10]	–	–	–	–	–	–	–	–	–	–	–	–	–	–	–	–	–	–	–	–	stability against DHP-I (in words) [22]: a little more stable than meropenem against DHP-I and markedly more stable than imipenem; half-life [1]: > 300 min; half-life ([23]; mouse, in vivo, sc): 19.2 ± 2.4 min; AUC ([23]; mouse, in vivo, sc, AUC 0-3 hr): 11900 ± 1130 ng·h/mL; Cmax ([23]; mouse, in vivo, sc, read-out: Cmax): 16000 ± 960 ng/mL; Tmax ([23]; mouse, in vivo, sc, read-out: Tmax): ≤ 19.8 min; times as efficient as meropenem (bioavailability, Table 4) ([23]; versus meropenem): ca. 3 times; PD50 ([24]; Streptococcus pyrogenes A 77): 2.31; times more efficient than meropenem (PD50 test) ([24]; gram-positive strain, versus meropenem): 3 times; PD50 ([25]; Escherichia coli 078): 0.47; times more efficient than meropenem (PD50 test) ([25]; gram-negative strain, versus meropenem): 3 times
